US7683095B2, “Compositions and methods of treating, reducing and preventing cardiovascular diseases and disorders with polymethoxyflavones” (The United States of America as represented by the …, priority 1998, dated 2010)
≈ marks a conversion by molar mass, not a printed value.

Tested on: apolipoprotein B (apoB) production
Test: apo B secretion into medium of HepG2 cells, competitive ELISA
Type: cell-based, human
Settings: for % apo B reduction / Apo B μg/mL medium / % apo B in medium: HepG2, 24 hours; for IC50: Homo sapiens, apo B in medium of HepG2 cells, 24 hours incubation, read-out: IC50 concentrations; for % apo B in medium: percent of control; for inhibitory effect on apo-B production: result in words, these results along with other preliminary studies, alone or in combination
Protocol: Limocitrin derivatives, quercetin derivatives, naturally occurring polymethoxyflavones, and tocotrienols were tested for cholesterol lowering activity in HepG2 cells. Confluent HepG2 cells were preincubated for 24 hours in a lipoprotein-free medium (Minimum Essential Medium (MEM), Life Technologies, Burlington, Canada) in which the fetal bovine serum (Life Technologies, Burlington, Canada) was replaced by bovine serum albumin (BSA, Life Technologies, Burlington, Canada) to inhibit cell proliferation and to stimulate synthesis of cholesterol-containing lipoproteins. Cells were subsequently incubated for another 24 hours in the same medium in the presence or absence of limocitrin derivatives, quercetin derivatives, naturally occurring polymethoxyflavones, or tocotrienols (See Table 1) at the highest concentrations sustaining about 100%±10% cell viability, as determined by the 3-(4,5-dimethylthiazol-2-yl)-2,5-diphenyltetrazolium bromide (MTT) viability assay. The test compounds were added to the cell culture medium after solubilization in dimethyl sulfoxide (DMSO) and filter sterilized. […] For each experiment, equal concentrations of solvent were added to all treatment media and to a control medium (without tested compounds). At the end of the incubation, culture media were collected and the concentration of the LDL structural protein, apo-B, was measured by ELISA. The competitive Elisa assay kit for determination of human apo B (Ortho Diagostics, LaJolla, Calif.) measures medium apo B concentrations within the range 0.4-0.031 μg/mL. In this assay, microtiter 96-well plates are coated with monoclonal antibody against human apo B, which binds apo B epitope from human LDL (standard curve, control sera with high and low content of human apo B) or from LDL-like lipoproteins secreted by HepG2 cells (tested media, usually 2× diluted with Ca^2+- and […]-free phosphate buffered saline (PBS)). After the exposure, a fraction of antibody is blocked and the remaining amount is captured by a subsequent incubation with conjugate containing a secondary antibody (against anti-human apo B) coupled with horseradish peroxidase. The following incubation with horseradish peroxidase substrate, o-phenylenediamine, produces a yellow color change proportional to the amount of apo B present, and the optical density of samples is measured at 490-492 nm against the blank PBS/conjugate wells. To determine whether evaluated compounds cross-react with Elisa assay, in separate study, various doses of compounds were tested in presence of cell-free culture media.
Amount of lipoprotein-associated apo-B in the media net apo-B secretion) was determined as described above, and calculated per mg cell protein. Net apo B3 secretion was also expressed as percent of control (amount of apo B in medium from cells incubated without tested compounds).

[1] = concentration 6.25 μg/mL medium
[2] = concentration 12.5 μg/mL medium
[3] = concentration 25.0 μg/mL medium
[4] = concentration 50.0 μg/mL medium
[5] = concentration 3.12 μg/mL medium

Structure (SMILES) | % apo B reduction [1] [%] | Apo B μg/mL medium [1] [μg/mL medium] | % apo B reduction [2] [%] | Apo B μg/mL medium [2] [μg/mL medium] | % apo B reduction [3] [%] | Apo B μg/mL medium [3] [μg/mL medium] | % apo B in medium [1] [%] | % apo B in medium [2] [%] | % apo B in medium [3] [%] | inhibitory effect on apo-B production | also measured
COc1ccc(-c2cc(=O)c3c(OC)c(OC)c(OC)cc3o2)cc1OC [Sinensetin, 5,6,7,3′,4′-pentamethoxyflavone] | 25 | 0.70 ± 0.13 | 42 | 0.54 ± 0.04 | 62 | 0.35 ± 0.04 | 75 ± 14 | 58 ± 4 | 38 ± 5 | inhibitory effects | % apo B reduction [4]: 72%; Apo B μg/mL medium [4]: 0.26 ± 0.02 μg/mL medium; IC50: 17.8 mg/L (≈ 47.8 µM); % apo B in medium [4]: 28 ± 5%
COc1ccc(-c2cc(=O)c3c(O)c(OC)c(OC)cc3o2)cc1OC [5-desmethylsinensetin, 5-hydroxy-6,7,3′,4′-tetramethoxyflavone] | – | – | – | – | 27 | 0.84 ± 0.21 | – | – | 73 ± 18 | inhibitory effects | % apo B reduction [4]: 64%; Apo B μg/mL medium [4]: 0.41 ± 0.20 μg/mL medium; % apo B in medium [4]: 36 ± 1%
COc1ccc(-c2cc(=O)c3c(O)c(OC)c(OC)c(OC)c3o2)cc1OC [5-desmethylnobiletin, 5-hydroxy-6,7,8,3′,4′-pentamethoxyflavone] | – | – | – | – | – | – | – | – | – | inhibitory effects | –
COc1ccc(-c2cc(=O)c3c(OC)c(OC)c(OC)c(OC)c3o2)cc1 [tangeretin, 5,6,7,8,4′-pentamethoxyflavone] | 78 | 0.055 ± 0.01 | 81 | 0.048 ± 0.01 | 86 | 0.035 ± 0.01 | 22 ± 2 | 19 ± 2 | 14 ± 1 | inhibitory effects | % apo B reduction [5]: 68%; Apo B μg/mL medium [5]: 0.080 ± 0.02 μg/mL medium; IC50: 2.5 mg/L (≈ 6.71 µM); % apo B in medium [5]: 32 ± 8%
COc1ccc(-c2oc3c(OC)c(OC)c(OC)c(OC)c3c(=O)c2OC)cc1OC [Heptamethoxyflavone, 3,5,6,7,8,3′,4′-heptamethoxyflavone] | 45 | 0.138 ± 0.02 | 68 | 0.080 ± 0.02 | 81 | 0.048 ± 0.01 | 55 ± 5 | 32 ± 9 | 19 ± 3 | inhibitory effects | % apo B reduction [4]: 82%; Apo B μg/mL medium [4]: 0.045 ± 0.01 μg/mL medium; IC50: 7.8 mg/L (≈ 18 µM); % apo B in medium [4]: 18 ± 2%
COc1c(-c2ccc(OCc3ccccc3)c(OCc3ccccc3)c2)oc2cc(OCc3ccccc3)cc(OC)c2c1=O [quercetin-3,5-dimethylether-7,3′,4′-tribenzyl ether] | – | – | – | – | – | – | – | – | – | inhibitory effects | –
COc1cc(O)c2c(=O)c(OC)c(-c3ccc(OC)c(OC)c3)oc2c1 [quercetin tetramethylether, 5-hydroxy-3,7,3′,4′-tetramethoxyflavone] | – | – | – | – | – | – | – | – | – | inhibitory effects | –
COc1cc(OC)c2c(=O)c(OC(C)=O)c(-c3ccc(OC)c(OC)c3)oc2c1 [quercetin-5,7,3′,4′-tetramethylether-3-acetate] | – | – | – | – | – | – | – | – | – | inhibitory effects | –
COc1ccc(-c2oc3c(OC)c(OC)cc(OC(C)=O)c3c(=O)c2OC)cc1OC [limocitrin-3,7,4′-trimethylether-5-acetate] | – | – | – | – | – | – | – | – | – | inhibitory effects | –
COc1cc(OC)c2c(=O)c(O)c(-c3ccc(OC)c(OC)c3)oc2c1 [quercetin-5,7,3′,4′-tetramethylether, 3-hydroxy-5,7,3′,4′-tetramethoxyflavone] | – | – | – | – | – | – | – | – | – | inhibitory effects | –
COc1ccc(-c2oc3c(OC)c(OC)cc(OC)c3c(=O)c2OC)cc1OC [limocitrin-3,5,7,4′-tetramethylether, 3,5,7,8,3′,4′-hexamethoxyflavone] | – | – | – | – | – | – | – | – | – | inhibitory effects | –
COc1ccc(-c2oc3c(OC)c(OC)cc(O)c3c(=O)c2OC)cc1OC [limocitrin-3,7,4′-trimethylether, 5-hydroxy-3,7,8,3′,4′-pentamethoxyflavone] | – | – | – | – | – | – | – | – | – | inhibitory effects | –
COc1ccc(-c2cc(=O)c3c(OC)c(OC)c(OC)c(OC)c3o2)cc1OC [nobiletin, 5,6,7,8,3′,4′-hexamethoxyflavone] | 33 | 0.37 ± 0.09 | 68 | 0.175 ± 0.03 | 82 | 0.10 ± 0.01 | 67 ± 16 | 32 ± 6 | 18 ± 1 | inhibitory effects | % apo B reduction [4]: 83%; Apo B μg/mL medium [4]: 0.095 ± 0.01 μg/mL medium; IC50: 4.9 mg/L (≈ 12.2 µM); % apo B in medium [4]: 17 ± 1%
COc1ccc(-c2cc(=O)c3c(OC)cc(OC)c(OC)c3o2)cc1 [tetra-O-methylisoscutellarein, 5,7,8,4′-tetramethoxyflavone] | – | – | – | – | – | – | – | – | – | inhibitory effects | –
CCOc1ccc(-c2oc3c(OC)c(OCC)cc(OCC)c3c(=O)c2OCC)cc1OC [limocitrin-3,5,7,4′-tetraethylether] | – | – | – | – | – | – | – | – | – | inhibitory effects | –
COc1ccc(-c2cc(=O)c3c(OC)c(OC)c(OC)cc3o2)cc1 [Tetra-O-methyl-Scutellarein] | 29 | 0.305 ± 0.03 | 41 | 0.255 ± 0.06 | – | – | 71 ± 7 | 59 ± 13 | – | – | –
